Converted amounts (≈) assume the structure as drawn.

These results are taken from patent US12065429B2, “Small molecule modulators of IL-17” (LEO Pharma A/S, priority 2022, dated 2024).

Data set [1] concerns the target T1, recombinant IL-17AA (Homo sapiens, UniProt Q16552).
T1 construct: purchased R&D Systems 7955-IL
T1 sequence (Q16552 24-155): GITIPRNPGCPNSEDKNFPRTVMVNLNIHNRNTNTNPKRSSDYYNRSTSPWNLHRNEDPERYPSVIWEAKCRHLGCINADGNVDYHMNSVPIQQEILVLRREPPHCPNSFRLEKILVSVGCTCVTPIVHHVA
In words: Inhibition of recombinant IL-17AA-induced SEAP reporter gene activity in HEK-Blue IL-17 cells. In kind it is cell-based. The settings on record: recombinant IL-17A 2 ng/ml, overnight. On the procedure:
Example 62: Inhibition of Recombinant IL-17AA-Induced SEAP Reporter Gene Activity in HEK-Blue™ IL-17 Cells
The assay was run according to the protocol provided by InvivoGen. Briefly, the HEK-Blue™ IL-17 cells (Invivogen, cat #hkb-il17) were suspended in the complete culture medium and seeded in a 96 well plate in a volume of 80 μl in a density of 50,000 cells per well the day before the assay. 10 μl of a solution of the test compounds were added in a serial gradient dilution to the cells followed by the addition of 10 μl IL-17A (R&D Systems cat #7955-IL) in a final concentration of 2 ng/ml. The plate was incubated overnight. The QUANTI-Blue™ solution was used to determine the SEAP activity; 180 μl QUANTI-Blue™ solution and 20 μl of the supernatant from the cell plate were mixed and incubated for 1 hour at 37 degrees Celsius. SEAP levels were measured using a spectrophotometer at 650 nm.
On the technique in general: In a reporter assay the amount or activity of a reporter protein is the signal.

The nature of data set [2]: Human liver microsome (HLM) clearance assay. It counts as in vitro ADME. The following applies: human liver microsomes 0.5 mg/mL, NADPH 1 mM, 0.5 μM compound, 40 min. On the procedure:
Example 63: Human Liver Microsome (HLM) Clearance Assay
Samples were taken out before addition of NADPH, and at 5, 10, 20 and 40 minutes thereafter and protein precipitation using cold acetonitrile with added internal standard was performed prior to centrifugation and sample analysis using compound specific LCMS/MS methods. Control incubations in buffer and without NADPH were performed in the same manner. Compound depletion was determined and apparent clearance (CLapp) was calculated.
(In general: Liver microsomes are vesicles of endoplasmic reticulum, rich in cytochrome P450 enzymes.)

A short description of data set [3]: Solubility assay. It counts as physicochemical. The settings on record: 0.067 M phosphate buffer pH 6.5, 24 hours shaking, from 10 mM DMSO stock; for solubility at 24 h: aqueous buffer, kinetic from dmso stock. On the procedure: After centrifugation, the supernatant was analyzed by HPLC-UV. The solubility was defined as the concentration of the test substance in the selected solvent. It was determined by correlation with an external standard calibration curve.

The term EC50 denotes the concentration needed to bring the measured effect to its halfway point. A word on the solubility: it is the concentration that dissolves in the medium under given conditions. Low values mean a poorly soluble substance, high ones a readily soluble substance. Turning to `Cc1c(-c2ccc(NC(=O)[C@@H](NC(=O)c3ccnn3C(C)C)C(C3CC3)C3CC3)nc2F)cc(C#N)c[n+]1[O-]` [Example 59, N-[(1S)-1-[[5-(5-cyano-2-methyl-1-oxido-pyridin-1-ium-3-yl)-6-fluoro-2-pyridyl]carbamoyl]-2,2-dicyclopropyl-ethyl]-2-isopropyl-pyrazole-3-carboxamide], the EC50 in data set [1] was 46 nM. For the same compound, in data set [2], the “HLM Clapp” value is reported as below 9 mL/min/kg. The solubility at 24 h in data set [3] was determined as 29 µg/mL (≈ 54.6 µM).

In the case of `Cc1c(-c2ccc(NC(=O)[C@@H](NC(=O)c3ccnn3C(C)C)C(C3CC3)C3CC3)nc2F)cc(C(F)F)c[n+]1[O-]` [Example 49, N-[(1S)-1-(dicyclopropylmethyl)-2-[[5-[5-(difluoromethyl)-2-methyl-1-oxido-pyridin-1-ium-3-yl]-6-fluoro-2-pyridyl]amino]-2-oxo-ethyl]-2-isopropyl-pyrazole-3-carboxamide], in data set [2], the “HLM Clapp” value is given as below 8 mL/min/kg. Further, the solubility at 24 h in data set [3] stood at 18 µg/mL (≈ 32.3 µM).

With `Cc1cc[n+]([O-])c(C)c1-c1ccc(NC(=O)[C@@H](NC(=O)c2ccnn2C(C)C)C(C2CC2)C2CC2)nc1Cl` (single isomer, unassigned) [Example 56], the EC50 in data set [1] was determined as 4.6 nM. Besides, the “HLM Clapp” value in data set [2] came out at 16 mL/min/kg. This compound displayed a solubility at 24 h in data set [3] below 1 µg/mL.

Consider `Cc1c(-c2ccc(NC(=O)[C@@H](NC(=O)c3ccnn3C(C)C)C(C3CC3)C3CC3)nc2F)c[n+]([O-])cc1C(F)F` [Example 48, N-[(1S)-1-(dicyclopropylmethyl)-2-[[5-[5-(difluoromethyl)-4-methyl-1-oxido-pyridin-1-ium-3-yl]-6-fluoro-2-pyridyl]amino]-2-oxo-ethyl]-2-isopropyl-pyrazole-3-carboxamide], for which the “HLM Clapp” value in data set [2] was below 8 mL/min/kg. This compound also gave a solubility at 24 h in data set [3] of 19 µg/mL (≈ 34.1 µM).

In the case of `CCc1cc[n+]([O-])cc1-c1ccc(NC(=O)[C@@H](NC(=O)c2ccnn2C(C)C)C(C2CC2)C2CC2)nc1F` [Example 53, N-[(1S)-1-(dicyclopropylmethyl)-2-[[5-(4-ethyl-1-oxido-pyridin-1-ium-3-yl)-6-fluoro-2-pyridyl]amino]-2-oxo-ethyl]-2-isopropyl-pyrazole-3-carboxamide], the “HLM Clapp” value in data set [2] is below 8 mL/min/kg. This compound came in with a solubility at 24 h in data set [3] of 39 µg/mL (≈ 74.9 µM).

As for `Cc1c(-c2ccc(NC(=O)[C@@H](NC(=O)c3ccnn3C(C)C)C(C3CC3)C3CC3)nc2F)cc(OC(F)F)c[n+]1[O-]` [Example 8, N-[(1S)-1-(dicyclopropylmethyl)-2-[[5-[5-(difluoromethoxy)-2-methyl-1-oxido-pyridin-1-ium-3-yl]-6-fluoro-2-pyridyl]amino]-2-oxo-ethyl]-2-isopropyl-pyrazole-3-carboxamide], the “HLM Clapp” value in data set [2] was found to be 8 mL/min/kg. The compound also returned a solubility at 24 h in data set [3] of 8 µg/mL (≈ 14 µM).

Consider `CCc1c(-c2ccc(NC(=O)[C@@H](NC(=O)c3ccnn3C(C)C)C(C3CC3)C3CC3)nc2F)ccc[n+]1[O-]` [Example 5, N-[(1S)-1-(dicyclopropylmethyl)-2-[[5-(2-ethyl-1-oxido-pyridin-1-ium-3-yl)-6-fluoro-2-pyridyl]amino]-2-oxo-ethyl]-2-isopropyl-pyrazole-3-carboxamide], for which, in data set [2], the “HLM Clapp” value was below 8 mL/min/kg. Besides, the solubility at 24 h in data set [3] turned out to be 35 µg/mL (≈ 67.2 µM).

As for `Cc1c(-c2ccc(NC(=O)[C@@H](NC(=O)c3ccnn3C(C)C)C(C3CC3)C3CC3)nc2F)cc(OCF)c[n+]1[O-]` [Example 9, N-[(1S)-1-(dicyclopropylmethyl)-2-[[6-fluoro-5-[5-(fluoromethoxy)-2-methyl-1-oxido-pyridin-1-ium-3-yl]-2-pyridyl]amino]-2-oxo-ethyl]-2-isopropyl-pyrazole-3-carboxamide], in data set [2], the “HLM Clapp” value is recorded as below 8 mL/min/kg. This compound had a solubility at 24 h in data set [3] of 23 µg/mL (≈ 41.5 µM).

For the compound `CC(C)n1nccc1C(=O)N[C@H](C(=O)Nc1ccc(-c2c[n+]([O-])ccc2C(F)F)c(F)n1)C(C1CC1)C1CC1` [Example 51, N-[(1S)-1-(dicyclopropylmethyl)-2-[[5-[4-(difluoromethyl)-1-oxido-pyridin-1-ium-3-yl]-6-fluoro-2-pyridyl]amino]-2-oxo-ethyl]-2-isopropyl-pyrazole-3-carboxamide], the “HLM Clapp” value in data set [2] was below 8 mL/min/kg. For the same compound, the solubility at 24 h in data set [3] was 25 µg/mL (≈ 46.1 µM).

As for `CCc1c(-c2ccc(NC(=O)[C@@H](NC(=O)c3ccnn3C(C)C)C(C3CC3)C3CC3)nc2F)cc(OC)c[n+]1[O-]` [Example 60, N-[(1S)-1-(dicyclopropylmethyl)-2-[[6-fluoro-5-(5-methoxy-2-ethyl-1-oxido-pyridin-1-ium-3-yl)-2-pyridyl]amino]-2-oxo-ethyl]-2-isopropyl-pyrazole-3-carboxamide], in data set [1], the EC50 turned out to be 31 nM.

On to `Cc1cc(-c2ccc(NC(=O)[C@@H](NC(=O)c3conc3C(C)C)C(C3CC3)C3CC3)nc2F)c(C)[n+]([O-])c1` [Example 22, N-[(1S)-1-(dicyclopropylmethyl)-2-[[5-(2,5-dimethyl-1-oxido-pyridin-1-ium-3-yl)-6-fluoro-2-pyridyl]amino]-2-oxo-ethyl]-3-isopropyl-isoxazole-4-carboxamide], for which the “HLM Clapp” value in data set [2] came to 73 mL/min/kg. In addition, the solubility at 24 h in data set [3] amounted to 28 µg/mL (≈ 53.7 µM).

As to `Cc1c(-c2ccc(NC(=O)[C@@H](NC(=O)c3ccnn3C(C)C)C(C3CC3)C3CC3)nc2F)c(C(F)(F)F)cc[n+]1[O-]` (single isomer, unassigned) [Example 54], the “HLM Clapp” value in data set [2] was found to be 63 mL/min/kg. This compound came in with a solubility at 24 h in data set [3] below 1 µg/mL.

For `Cc1cc(-c2ccc(NC(=O)[C@@H](NC(=O)c3ccnn3C(C)C)C(C3CC3)C3CC3)nc2Cl)c(C)[n+]([O-])c1` [Example 18, N-[(1S)-1-[[6-chloro-5-(2,5-dimethyl-1-oxido-pyridin-1-ium-3-yl)-2-pyridyl]carbamoyl]-2,2-dicyclopropyl-ethyl]-2-isopropyl-pyrazole-3-carboxamide], the “HLM Clapp” value in data set [2] is below 8 mL/min/kg. Also, the solubility at 24 h in data set [3] came to 26 µg/mL (≈ 48.4 µM).

As usually defined, the Solubility is how much of the substance goes into solution per volume. Higher therefore signals much dissolved substance. Take `Cc1c(-c2ccc(NC(=O)[C@@H](NC(=O)c3ccnn3C(C)C)C(C3CC3)C3CC3)nc2F)c(C(F)(F)F)cc[n+]1[O-]` (single isomer, unassigned) [Example 55]: the “HLM Clapp” value in data set [2] is reported as 41 mL/min/kg. Further, the “Solubility at pH 6.5” value in data set [3] is below 1 μg/mL.

For `Cc1cc[n+]([O-])c(C)c1-c1ccc(NC(=O)[C@@H](NC(=O)c2ccnn2C(C)C)C(C2CC2)C2CC2)nc1F` [Example 4, N-[(1S)-1-(dicyclopropylmethyl)-2-[[5-(2,4-dimethyl-1-oxido-pyridin-1-ium-3-yl)-6-fluoro-2-pyridyl]amino]-2-oxo-ethyl]-2-isopropyl-pyrazole-3-carboxamide], the “HLM Clapp” value in data set [2] came out at 9 mL/min/kg. The compound also came in with a solubility at 24 h in data set [3] of 74 µg/mL (≈ 142 µM).

As for `CC(C)n1nccc1C(=O)N[C@H](C(=O)Nc1ccc(-c2c[n+]([O-])cc(F)c2C(F)(F)F)c(F)n1)C(C1CC1)C1CC1` [Example 50, N-[(1S)-1-(dicyclopropylmethyl)-2-[[6-fluoro-5-[5-fluoro-1-oxido-4-(trifluoromethyl)pyridin-1-ium-3-yl]-2-pyridyl]amino]-2-oxo-ethyl]-2-isopropyl-pyrazole-3-carboxamide], the “HLM Clapp” value in data set [2] is listed as 10 mL/min/kg. Also, the solubility at 24 h in data set [3] was below 1 µg/mL.
